Experimental data taken from patent publication US11168054B2, “Biaromatic compounds, which are vitamin D analogs” (DSM IP ASSETS B.V., priority 2015, dated 2021).

Biological target: T1, ligand-binding domain of the human VDR linked to the DNA-binding domain of the yeast transcription factor GAL4 (Homo sapiens, UniProt P11473)
T1 construct: expressed in transfected cells; host or cells: HEK293
T1 sequence (P11473 127-423 limits assumed): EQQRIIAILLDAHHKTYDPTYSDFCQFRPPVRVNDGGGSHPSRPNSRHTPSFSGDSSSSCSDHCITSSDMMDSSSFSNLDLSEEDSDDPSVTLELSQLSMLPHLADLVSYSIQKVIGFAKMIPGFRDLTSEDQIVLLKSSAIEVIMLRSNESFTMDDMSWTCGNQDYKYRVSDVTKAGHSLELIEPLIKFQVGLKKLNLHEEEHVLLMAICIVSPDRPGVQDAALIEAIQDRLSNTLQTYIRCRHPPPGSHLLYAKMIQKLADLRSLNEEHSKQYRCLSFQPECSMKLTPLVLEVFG
Assay: Human vitamin D receptor (VDR) agonist activity, cell based GAL4 hybrid luciferase transactivation assay
Conditions: HEK293 cells transiently transfected with VDR-LBD/GAL4 hybrid receptor and pFR-Luc reporter; 16 h incubation; luciferase luminescence; read-out: Effective concentrations of half maximal activation (EC50)
Excerpt: By way of example, the human vitamin D receptor (VDR) agonist activity of the claimed compounds can be tested using a cell based transactivation assay in an eukaryotic cell line. After a co-transfection, using a reporter plasmid construct and a hybrid receptor construct containing the ligand-binding domain of the human VDR linked to the DNA-binding domain of the yeast transcription factor GAL4, the cultured cells were stimulated by the VDR agonists. The hybrid VDR-GAL4 receptor binds the VDR agonists and transactivates luciferase reporter expression through the GAL4-response elements in the promoter of the luciferase gene (reporter construct). The VDR agonist binding and transactivation is determined by measuring the luciferase luminescence activity. The effective concentration of half maximal activation (EC50) was determined for the VDR agonists by means of dose-response experiments. The details of the protocol method of this test according to the invention are described in the example section.
Testing of the Human Vitamin D Receptor (VDR) Agonist Activity of the Compounds
The transient transfections were performed in HEK293 cells (ATCC, Molsheim, France) grown in minimum essential medium (Eagle) with Earle's balanced salt solution without L-glutamine and supplemented with 10% fetal bovine serum (Sigma-Aldrich Corp., St. Gallen, Switzerland), 2 mM glutamax (Life Technologies AG, Basel, Switzerland), 0.1 mM non-essential amino acids (Life Technologies), and 1 mM sodium pyruvate (Life Technologies) at 37° C. in 5% CO2. […] The cells were transiently transfected before stimulation the next day at >80% confluence by polyethylene-imine-based transfection. Compound stocks were prepared in DMSO, pre-diluted in PBS (0.45% final DMSO concentration), and added in the respective dilution 5 h after the addition of the transfection mixture onto the cells. The cells were again incubated for additional 16 h before firefly and renilla luciferases activity was measured sequentially in the same cell extract using buffers according to established protocols (Promega AG, Dübendorf, Switzerland). Transfection efficiency was controlled to the pRL-TK renilla luciferase reporter expression.

EC50 | Structure (SMILES)
0.21 µM | CCCC1C(O)c2ccc(CCc3cccc(/C(=C/C=C/C(O)(CC)CC)CC)c3)cc2C1O (stereo not shown) [Comp1, reference compound]
0.014 µM | CC/C(=C\C=C\C(O)(CC)CC)c1cccc(CCc2ccc3c(c2)C(O)C(C)(C)C3O)c1 (stereo not shown) [I-a, (5-(3-((3E,5E)-7-ethyl-7-hydroxynona-3,5-dien-3-yl)phenethyl)-2,2-dimethyl-2,3-dihydro-1H-indene-1,3-diol)]
0.034 µM | CC/C(=C\C=C\C(O)(CC)CC)c1cccc(CCc2ccc3c(c2)C(O)C(C)C3O)c1 (stereo not shown) [I-b, 5-(3-((3E,5E)-7-ethyl-7-hydroxynona-3,5-dien-3-yl)phenethyl)-2-methyl-2,3-dihydro-1H-indene-1,3-diol]
0.049 µM | CC/C(=C\C=C\C(O)(CC)CC)c1cccc(CCc2ccc3c(c2)C(O)CC3O)c1 (stereo not shown) [I-c, 5-(3-((3E,5E)-7-ethyl-7-hydroxynona-3,5-dien-3-yl)phenethyl)-2,3-dihydro-M-indene-1,3-diol]
